# Measured values as given in ChEMBL document CHEMBL3868640, “1,2,4-Triazolidine-3-thiones as Narrow Spectrum Antibiotics against Multidrug-Resistant Acinetobacter baumannii” (ACS Med Chem Lett, 2017).
# How the values were obtained:
# Acinetobacter baumannii [1] = assay: Antimicrobial activity against extensively drug-resistant Acinetobacter baumannii AB5075 after 16 hrs by microbroth dilution method; assay type: functional; conditions: AB5075, 16 h
# Acinetobacter baumannii [2] = assay: Antimicrobial activity against multi drug-resistant Acinetobacter baumannii AB3785 after 16 hrs by microbroth dilution method; assay type: functional; conditions: AB3785, 16 h
# Acinetobacter baumannii [3] = assay: Antimicrobial activity against extensively drug-resistant Acinetobacter baumannii AB5075 in 0.02% linoleic acid supplemented media after 16 hrs by microbroth dilution method; assay type: functional; conditions: AB5075, 16 h
# [4] = Half life in cation adjusted Mueller-Hinton broth by liquid chromatography; assay type: physicochemical
# Klebsiella pneumoniae = assay: Antimicrobial activity against Klebsiella pneumoniae after 16 hrs by microbroth dilution method; assay type: functional
# Acinetobacter baumannii [5] = assay: Antimicrobial activity against multi drug-resistant Acinetobacter baumannii AB4957 after 16 hrs by microbroth dilution method; assay type: functional; conditions: AB4957, 16 h
# [6] = Hemolytic activity against sheep RBC up to 512 ug/ml after 1 hr by UV spectrometric analysis; assay type: ADME, cell-based, Ovis aries; conditions: erythrocyte
# Acinetobacter baumannii [7] = assay: Antibacterial activity against Acinetobacter baumannii AB5075 infected in Galleria mellonella assessed as protection against bacterial infection by measuring survival of host at 100 mg/kg after 6 days relative to control; assay type: functional; conditions: AB5075, 144 h
# Acinetobacter baumannii [8] = assay: Bactericidal activity against extensively drug-resistant Acinetobacter baumannii AB5075 assessed as log reduction in bacterial count at 4 to 16 ug/ml measured up to 24 hrs by time kill assay; assay type: functional
# Acinetobacter baumannii [9] = assay: Antibacterial activity against Acinetobacter baumannii AB5075 infected in Galleria mellonella assessed as protection against bacterial infection by measuring survival of host at 50 mg/kg after 6 days relative to control; assay type: functional; conditions: AB5075, 144 h
# Acinetobacter baumannii [10] = assay: Antibacterial activity against Acinetobacter baumannii AB5075 infected in Galleria mellonella assessed as worm survival at 50 mg/kg after 3 days relative to control; assay type: functional; conditions: AB5075, 72 h
# Acinetobacter baumannii [11] = assay: Antibacterial activity against Acinetobacter baumannii AB5075 infected in Galleria mellonella assessed as worm survival at 100 mg/kg after 3 days relative to control; assay type: functional; conditions: AB5075, 72 h
# Acinetobacter baumannii [12] = assay: Antimicrobial activity against multi drug-resistant Acinetobacter baumannii BAA1605 after 16 hrs by microbroth dilution method; assay type: functional; conditions: BAA1605, 16 h
# Staphylococcus aureus = assay: Antimicrobial activity against methicillin-resistant Staphylococcus aureus after 16 hrs by microbroth dilution method; assay type: functional
# Pseudomonas aeruginosa = assay: Antimicrobial activity against Pseudomonas aeruginosa after 16 hrs by microbroth dilution method; assay type: functional
# Escherichia coli = assay: Antimicrobial activity against Escherichia coli after 16 hrs by microbroth dilution method; assay type: functional
# [13] = Drug degradation in cation adjusted Mueller-Hinton broth after 16 hrs by liquid chromatography; assay type: physicochemical
# Acinetobacter baumannii [14] = assay: Antimicrobial activity against multi drug-resistant Acinetobacter baumannii AB3806 after 16 hrs by microbroth dilution method; assay type: functional; conditions: AB3806, 16 h
# Acinetobacter baumannii [15] = assay: Antimicrobial activity against multi drug-resistant Acinetobacter baumannii AB3638 after 16 hrs by microbroth dilution method; assay type: functional; conditions: AB3638, 16 h
# Acinetobacter baumannii [16] = assay: Antimicrobial activity against multi drug-resistant Acinetobacter baumannii AB4878 after 16 hrs by microbroth dilution method; assay type: functional; conditions: AB4878, 16 h
Structure (SMILES),MIC (Acinetobacter baumannii [1]),further results
SC1=NC2(CCCCC2)NN1c1ccccc1,8 µg/mL,
CCC1(CC)NC(=S)N(c2ccccc2)N1,8 µg/mL,
CC1(C)NC(=S)N(c2ccccc2)N1,8 µg/mL,
CC(C)C1(C)NC(=S)N(c2ccccc2)N1 (stereo unspecified),8 µg/mL,
CCCCN1N(c2ccc(Cl)cc2)C(=S)NC1(C)C,> 128 µg/mL,
CCC1NC(=S)N(c2ccccc2)N1 (stereo unspecified),> 128 µg/mL,
CCCC1(CC)NC(=S)N(c2ccccc2)N1 (stereo unspecified),32 µg/mL,
CCC1(CC)NC(=S)N(c2ccccc2F)N1,32 µg/mL,
CCC1(CC)NC(=S)N(c2cccc(Cl)c2)N1,8 µg/mL,
CCC1(CC)NC(=S)N(c2ccc(F)cc2)N1,4 µg/mL,
CCCC1NC(=S)N(c2ccccc2)N1 (stereo unspecified),64 µg/mL,
CC1(C)NNC(=S)N1c1ccc(Cl)cc1,> 128 µg/mL,
CC1NC(=S)N(c2ccccc2)N1 (stereo unspecified),> 128 µg/mL,
CC1(c2ccccc2)NC(=S)N(c2ccccc2)N1 (stereo unspecified),> 128 µg/mL,
CC1(C)NC(=S)N(c2ccc(Cl)cc2)N1,,MIC (Acinetobacter baumannii [2]): 1 µg/mL; MIC (Acinetobacter baumannii [3]): > 128 µg/mL; half-life [4]: 2.5 h; MIC (Klebsiella pneumoniae): ≥ 128 µg/mL; MIC (Acinetobacter baumannii [5]): 2 µg/mL; Activity [6]: Non-Toxic; survival at 100 mg/kg (Acinetobacter baumannii [7]): 32%; log reduction (Acinetobacter baumannii [8]): > 6 log10 CFU/mL; survival at 50 mg/kg (Acinetobacter baumannii [9]): 22%; survival at 50 mg/kg (Acinetobacter baumannii [10]): 42.5%; survival at 100 mg/kg (Acinetobacter baumannii [11]): 45%; MIC (Acinetobacter baumannii [12]): 2 µg/mL; MIC (Staphylococcus aureus): ≥ 128 µg/mL; MIC (Pseudomonas aeruginosa): ≥ 128 µg/mL; MIC (Escherichia coli): ≥ 128 µg/mL; Stability [13]: Unstable; MIC (Acinetobacter baumannii [14]): 1 µg/mL; MIC (Acinetobacter baumannii [15]): 1 µg/mL; MIC (Acinetobacter baumannii [16]): 2 µg/mL
S=C1NC2(CCCC2)NN1c1ccccc1,8 µg/mL,
CCC1(C(C)C)NC(=S)N(c2ccccc2)N1 (stereo unspecified),32 µg/mL,
CCC1(CC)NC(=S)N(c2ccc(C#N)cc2)N1,> 128 µg/mL,

Structure (SMILES),MIC (Acinetobacter baumannii [1]),further results
CCC1(CC)NC(=S)N(c2ccccc2Cl)N1,128 µg/mL,
CCC1(CC)NC(=S)N(c2ccc(C(C)C)cc2)N1,> 128 µg/mL,
CCCC1(CCC)NC(=S)N(c2ccccc2)N1,32 µg/mL,
CCC1(CC)NC(=S)N(c2ccc(Cl)cc2)N1,2 µg/mL,MIC (Acinetobacter baumannii [2]): 4 µg/mL; MIC (Acinetobacter baumannii [5]): 4 µg/mL; MIC (Acinetobacter baumannii [12]): 4 µg/mL; MIC (Acinetobacter baumannii [14]): 4 µg/mL; MIC (Acinetobacter baumannii [15]): 4 µg/mL; MIC (Acinetobacter baumannii [16]): 4 µg/mL
CCC1(CC)NC(=S)N(c2cc(F)cc(F)c2)N1,> 128 µg/mL,
CCC1(CC)NC(=S)N(c2cccc(F)c2)N1,8 µg/mL,
CSC1=NC(C)(C)NN1c1ccc(Cl)cc1,> 128 µg/mL,
S=C1NC(c2ccccc2)NN1c1ccccc1 (stereo unspecified),64 µg/mL,
CCC1(CC)NC(=S)N(c2ccc(I)cc2)N1,8 µg/mL,
CCC1(CC)NC(=S)N(c2ccc(C(F)(F)F)cc2)N1,> 128 µg/mL,
CCC1(C)NC(=S)N(c2ccccc2)N1 (stereo unspecified),8 µg/mL,MIC (Acinetobacter baumannii [2]): 4 µg/mL; MIC (Acinetobacter baumannii [5]): 8 µg/mL; MIC (Acinetobacter baumannii [12]): 8 µg/mL; MIC (Acinetobacter baumannii [14]): 4 µg/mL; MIC (Acinetobacter baumannii [15]): 4 µg/mL; MIC (Acinetobacter baumannii [16]): 8 µg/mL
CCC1(CC)NC(=S)N(c2ccc([N+](=O)[O-])cc2)N1,> 128 µg/mL,
CN1N(c2ccc(Cl)cc2)C(=S)NC1(C)C,> 128 µg/mL,
CCC1(CC)NC(=S)N(c2ccc(Cl)c(Cl)c2)N1,> 128 µg/mL,
CCCC1(C)NC(=S)N(c2ccccc2)N1 (stereo unspecified),16 µg/mL,
CCC1(CC)NC(=S)N(c2ccc(F)c(Cl)c2)N1,32 µg/mL,
CCC1(CC)NC(=S)N(c2ccc(Br)cc2)N1,4 µg/mL,
CC1(C)N=C(SCc2ccccc2)N(c2ccc(Cl)cc2)N1,> 128 µg/mL,
